Where “and” joins values, the source holds several entries; their conditions need not be identical. Equal entries are not always repeated. Inconclusive results and toxic doses are left out. How the source made its calls: active means survival T/C of 150% or more; inactive means T/C below 125% in these data.
Test system: P388 leukemia ip, CD2F1 mice, survival T/C
Assay: NCI In Vivo Anticancer Drug Screen. Data for tumor model P388 Leukemia (intraperitoneal) in CD2F1 (CDF1) mice
Conditions: endpoint: median survival time, higher = longer survival
Outline: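 Mice carrying the transplanted tumor received test compound or vehicle. Survival was recorded in each group, and the value is the treated-group measurement divided by that of the vehicle-treated control group.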

[1] = dose: 60.0 mg/kg/injection, schedule: Q01DX005 (ip), vehicle: saline with Tween-80
[2] = dose: 120.0 mg/kg/injection, schedule: Q01DX005 (ip), vehicle: saline with Tween-80
[3] = dose: 240.0 mg/kg/injection, schedule: Q01DX005 (ip), vehicle: saline with Tween-80
[4] = dose: 50.0 mg/kg/injection, schedule: Q01DX009 (ip), vehicle: Klucel (hydroxypropylcellulose) (HPC)
[5] = dose: 100.0 mg/kg/injection, schedule: Q01DX009 (ip), vehicle: Klucel (hydroxypropylcellulose) (HPC)
[6] = dose: 200.0 mg/kg/injection, schedule: Q01DX009 (ip), vehicle: Klucel (hydroxypropylcellulose) (HPC)
[7] = dose: 50.0 mg/kg/injection, schedule: Q01DX005 (ip), vehicle: Klucel (hydroxypropylcellulose) (HPC)
[8] = dose: 100.0 mg/kg/injection, schedule: Q01DX005 (ip), vehicle: Klucel (hydroxypropylcellulose) (HPC)
[9] = dose: 200.0 mg/kg/injection, schedule: Q01DX005 (ip), vehicle: Klucel (hydroxypropylcellulose) (HPC)
[10] = dose: 50.0 mg/kg/injection, schedule: Q01DX009 (ip), vehicle: saline with Tween-80
[11] = dose: 100.0 mg/kg/injection, schedule: Q01DX009 (ip), vehicle: saline with Tween-80

Measured: T/C

N#CC(OC1OC(COC2OC(CO)C(O)C(O)C2O)C(O)C(O)C1O)c1ccccc1 (centres undefined)
inactive: dose: 25.0 mg/kg/injection, schedule: Q01DX009 (ip), vehicle: water 102 % of control and 108 % of control | dose: 50.0 mg/kg/injection, schedule: Q01DX009 (ip), vehicle: water 101 % of control and 108 % of control | dose: 100.0 mg/kg/injection, schedule: Q01DX009 (ip), vehicle: water 102 % of control and 105 % of control and 94 % of control | dose: 200.0 mg/kg/injection, schedule: Q01DX009 (ip), vehicle: water 105 % of control and 109 % of control and 92 % of control | dose: 400.0 mg/kg/injection, schedule: Q01DX009 (ip), vehicle: water 105 % of control and 110 % of control and 96 % of control | dose: 800.0 mg/kg/injection, schedule: Q01DX009 (ip), vehicle: saline 98 % of control | dose: 800.0 mg/kg/injection, schedule: Q01DX009 (ip), vehicle: water 105 % of control and 123 % of control and 96 % of control | dose: 1600.0 mg/kg/injection, schedule: Q01DX009 (ip), vehicle: saline 100 % of control

CCN(CC)c1ccc2cc(-n3nnc4ccccc43)c(=O)oc2c1
inactive: [1] 96 % of control | [2] 96 % of control | [3] 99 % of control

N#CC1C(=O)NC(=O)C(C#N)C1c1c2ccccc2cc2ccccc12 (centres undefined)
inactive: [4] 100 % of control | [5] 100 % of control | [6] 100 % of control

COc1cccc2c1C(=O)c1c(O)c3c(c(O)c1C2=O)C/C(=N/O)CC3OC1CC(NC(=O)C(F)(F)F)C(O)C(C)O1 (centres undefined)
inactive: dose: 1.56 mg/kg/injection, schedule: Q01DX009 (ip), vehicle: other 106 % of control | dose: 3.13 mg/kg/injection, schedule: Q01DX009 (ip), vehicle: other 88 % of control | dose: 6.25 mg/kg/injection, schedule: Q01DX009 (ip), vehicle: other 92 % of control | dose: 12.5 mg/kg/injection, schedule: Q01DX009 (ip), vehicle: other 110 % of control

Cc1ccc(C)n1N1CCOCC1
inactive: [1] 108 % of control | [2] 101 % of control | [3] 100 % of control

O=c1c2ccccc2[nH]c2c(O)c3c(=O)c4ccccc4[nH]c3cc12
inactive: dose: 100.0 mg/kg/injection, schedule: Q04DX003 (ip), vehicle: Klucel (hydroxypropylcellulose) (HPC) 102 % of control | dose: 200.0 mg/kg/injection, schedule: Q04DX003 (ip), vehicle: Klucel (hydroxypropylcellulose) (HPC) 92 % of control | dose: 400.0 mg/kg/injection, schedule: Q04DX003 (ip), vehicle: Klucel (hydroxypropylcellulose) (HPC) 102 % of control

OC(CCl)C(O)C(O)C(O)CCl (centres undefined)
inactive: dose: 100.0 mg/kg/injection, schedule: Q04DX003 (ip), vehicle: saline with Tween-80 109 % of control | dose: 200.0 mg/kg/injection, schedule: Q04DX003 (ip), vehicle: saline with Tween-80 100 % of control | dose: 400.0 mg/kg/injection, schedule: Q04DX003 (ip), vehicle: saline with Tween-80 113 % of control

COC(=O)/C(=C/c1ccccc1)N(C(C)=O)C(C)=O
inactive: [1] 100 % of control | [2] 105 % of control | [3] 107 % of control

COc1cc(Br)c(C(=O)Nc2ccc(O)cc2)cc1OC
inactive: dose: 25.0 mg/kg/injection, schedule: Q01DX009 (ip), vehicle: other 103 % of control and 107 % of control | dose: 50.0 mg/kg/injection, schedule: Q01DX009 (ip), vehicle: other 110 % of control | dose: 100.0 mg/kg/injection, schedule: Q01DX009 (ip), vehicle: other 106 % of control and 118 % of control | dose: 200.0 mg/kg/injection, schedule: Q01DX009 (ip), vehicle: other 106 % of control and 117 % of control | dose: 400.0 mg/kg/injection, schedule: Q01DX009 (ip), vehicle: other 106 % of control

O=C1NC(=O)N(CCO)C(=O)C1c1ccccc1 (centres undefined)
inactive: [4] 101 % of control | [5] 101 % of control | [6] 94 % of control

O=C1c2ccccc2OC2CCON12 (centres undefined)
inactive: [4] 100 % of control | [5] 100 % of control | [6] 116 % of control

COc1ccccc1-n1c(C)nc2c(cnn2C)c1=O
inactive: [7] 100 % of control | [8] 100 % of control | [9] 103 % of control

O=C(NNC(=S)NC1OC(CO)C(O)C(O)C1O)c1cccc(C(=O)NNC(=S)NC2OC(CO)C(O)C(O)C2O)n1 (centres undefined)
inactive: [1] 97 % of control | dose: 60.0 mg/kg/injection, schedule: Q01DX005 (ip), vehicle: saline 106 % of control | [2] 100 % of control | dose: 120.0 mg/kg/injection, schedule: Q01DX005 (ip), vehicle: saline 106 % of control | [3] 96 % of control | dose: 240.0 mg/kg/injection, schedule: Q01DX005 (ip), vehicle: saline 101 % of control

[O-][n+]1c2ccccc2[n+]([O-])c2c(O)cccc21
inactive: dose: 3.12 mg/kg/injection, schedule: Q01DX009 (ip), vehicle: distilled water + Tween-80 113 % of control | dose: 6.25 mg/kg/injection, schedule: Q01DX009 (ip), vehicle: distilled water + Tween-80 114 % of control and 121 % of control | dose: 12.5 mg/kg/injection, schedule: Q01DX009 (ip), vehicle: distilled water + Tween-80 121 % of control | dose: 25.0 mg/kg/injection, schedule: Q01DX009 (ip), vehicle: distilled water + Tween-80 119 % of control and 122 % of control

CC(C)=C(C#C[Si](C)(C)C)OS(=O)(=O)C(F)(F)F
inactive: dose: 50.0 mg/kg/injection, schedule: Q01DX005 (ip), vehicle: saline with Tween-80 100 % of control | dose: 100.0 mg/kg/injection, schedule: Q01DX005 (ip), vehicle: saline with Tween-80 101 % of control | dose: 200.0 mg/kg/injection, schedule: Q01DX005 (ip), vehicle: saline with Tween-80 101 % of control

O=C(O)c1cc(=O)cc(-c2ccccc2)o1
inactive: [7] 98 % of control | [8] 97 % of control | [9] 101 % of control

O=C1CCCCC1C(O)c1c(Cl)cccc1Cl (centres undefined)
inactive: [10] 99 % of control | [11] 99 % of control | dose: 200.0 mg/kg/injection, schedule: Q01DX009 (ip), vehicle: saline with Tween-80 100 % of control

COc1ccc(CSC(=S)Nc2ccc(N=Nc3ccccc3)cc2)cc1
inactive: dose: 50.0 mg/kg/injection, schedule: Q01DX009 (ip), vehicle: saline 107 % of control | dose: 100.0 mg/kg/injection, schedule: Q01DX009 (ip), vehicle: saline 104 % of control | dose: 200.0 mg/kg/injection, schedule: Q01DX009 (ip), vehicle: saline 119 % of control

O=[N+]([O-])c1cccc(C(O)C=C(C(F)(F)F)C(F)(F)F)c1 (centres undefined)
inactive: dose: 25.0 mg/kg/injection, schedule: Q01DX009 (ip), vehicle: saline with Tween-80 100 % of control | dose: 25.0 mg/kg/injection, schedule: Q04DX003 (ip), vehicle: saline 100 % of control | dose: 33.0 mg/kg/injection, schedule: Q01DX009 (ip), vehicle: saline with Tween-80 109 % of control | [10] 113 % of control | dose: 50.0 mg/kg/injection, schedule: Q04DX003 (ip), vehicle: saline 95 % of control | dose: 75.0 mg/kg/injection, schedule: Q01DX009 (ip), vehicle: saline with Tween-80 113 % of control | [11] 113 % of control | dose: 100.0 mg/kg/injection, schedule: Q04DX003 (ip), vehicle: saline 100 % of control

c1ccc(-c2cnc3cccnc3n2)cc1
inactive: dose: 60.0 mg/kg/injection, schedule: Q01DX005 (ip), vehicle: Klucel (hydroxypropylcellulose) (HPC) 100 % of control | dose: 120.0 mg/kg/injection, schedule: Q01DX005 (ip), vehicle: Klucel (hydroxypropylcellulose) (HPC) 99 % of control

Cc1nnc(NC(=O)c2ccc(Cl)c(Cl)c2)s1
inactive: [4] 100 % of control | [5] 94 % of control | [6] 89 % of control

From PubChem BioAssay AID330 (DTP/NCI, 2004)
